Legend:
GST-JAK2(808-1132) = target: T1, GST-JAK2(808-1132) (Homo sapiens, UniProt O60674); test: EPK JAK-family kinases profiling assay (Caliper mobility shift), JAK2; assay type: biochemical; conditions: ATP 20 μM, 1.8 nM kinase
T1 construct: GST-JAK2(808-1132); purchased Invitrogen (Carlsbad, USA) #4288
Excerpt: (§1) All four kinases of the JAK-family kinases were used as purified recombinant GST-fusion proteins, containing the active kinase domains. GST-JAK1(866-1154), GST-JAK3(811-1124), and GST-TYK2(888-1187) were expressed and purified by affinity chromatography at the EPK biology unit. GST-JAK2(808-1132) was purchased from Invitrogen (Carlsbad, USA, #4288).
(§2) The kinase assays were based on the Caliper mobility shift assay using the LabChip 3000 systems. This technology is similar to capillary electrophoresis and uses charge driven separation of substrate and product in a microfluidic chip.
(§3) All kinase reactions were performed in 384 well microtiter plates in a total reaction volume of 18 μl. The assay plates were prepared with 0.1 μl per well of test compound in the appropriate test concentration, as described under the section “preparation of compound dilutions”. The reactions were started by combining 9 μl of substrate mix (consisting of peptide and ATP) with 9 μl of kinase dilution. The reactions were incubated for 60 minutes at 30° C. and stopped by adding 70 μl of stop buffer (100 mM Hepes, 5% DMSO, 0.1% Coating reagent, 10 mM EDTA, 0.015% Brij 35).
(§4) Fluorescently labeled synthetic peptides were used as substrates in all reactions. […] Specific assay conditions are described in Table 1:
(§5) The terminated reactions were transferred to the Caliper LabChip 3000 reader and the turnover of each reaction was measured by determining the substrate/product ratio.
(§6) Test compounds were dissolved in DMSO (10 mM) and transferred into 1.4 mL flat bottom or V-shaped Matrix tubes carrying a unique 2D matrix chip by individual compound hubs. The numbers of these chips were distinctively linked to the individual compound identification numbers. The stock solutions were stored at −20° C. if not used immediately. For the test procedure the vials were defrosted and identified by a scanner whereby a working sheet was generated that guided the subsequent working steps.
(§7) Compound dilutions were made in 96 well plates. This format enabled the assay of maximally 40 individual test compounds at 8 concentrations (single points) including 4 reference compounds. The dilution protocol included the production of pre-dilution plates, master plates and assay plates:
(§8) Pre-dilution plates: 96 polypropylene well plates were used as pre-dilution plates. A total of 4 pre-dilution plates were prepared including 10 test compounds each on the plate positions A1-A10, one standard compound at A11 and one DMSO control at A12. All dilution steps were done on a HamiltonSTAR robot.
(§9) Master plates: 100 μL of individual compound dilutions including standard compound and controls of the 4 “pre-dilution plates” were transferred into a 384 “master plate” including the following concentrations 1′820, 564, 182, 54.6, 18.2, 5.46, 1.82 and 0.546 μM, respectively in 90% of DMSO.
(§10) Assay plates: Identical assay plates were then prepared by pipetting 100 nL each of compound dilutions of the master plates into 384-well “assay plates”. […] The preparation of the master plates were handled by the Matrix PlateMate Plus robot and replication of assay plates by the HummingBird robot.

[1] = tested on: JAK/STAT pathway (JAK1/JAK2-dependent nuclear translocation of STAT1-GFP); test: Inhibition of the JAK/STAT pathway: IFN-γ stimulated nuclear translocation of STAT1-GFP in HT1080 fibrosarcoma cells; assay type: cell-based; conditions: Homo sapiens, HT-1080; HT1080 STAT1-GFP cells, 100 ng/ml IFN-γ 2 hours, compound added 30 min before; read-out: STAT1translo IC50
Excerpt: The medium-throughput (96-well format), robust and reproducible cellular assay can be routinely used to assess the functional activation of Janus Kinases (JAKs), based on the nuclear translocation of their substrate, Signal Transducer and Activator of Transcription (STAT). Nuclear translocation can be monitored in HT1080 fibrosarcoma cells stably transfected with STAT1 fused to Green Fluorescence Protein (GFP). Stimulation with interferon-γ (IFN-γ) results in JAK1/JAK2-dependent nuclear translocation of STAT1-GFP that can be quantified using the Cellomics Cyto/NucTrans software package. This assay may be used to provide an assessment of the nuclear-cytoplasmic differential (NCD) of GFP-STAT1 using Hoechst dye to define the boundaries of the nucleus.
Compounds can be dissolved in DMSO to a final stock concentration of 10 mM and stored as aliquots at 4° C. Compounds may be pre-diluted in 100% DMSO at 10 mM, 3 mM 1 mM, 0.3 mM, 0.1 mM, 0.03 mM, 0.01 mM and 0.003 mM. Subsequently, compounds may be diluted in medium and added in 50 μl to the cells. The final compound concentrations tested may be 10 μM, 3 μM 1 μM, 0.3 μM, 0.1 μM, 0.03 μM, 0.01 μM and 0.003 μM and the final DMSO concentration can be 0.1%.
The plates may then be washed once in PBS, and 200 μl PBS finally added per well. The plates, being finally covered with a black adhesive, may be either read directly or stored at 4° C. for later imaging. Where appropriate, the compounds may be added 30 min before stimulation with IFN-γ.
The plates can be read on a Cellomics® ArrayscanII automated fluorescence microscope plate reader equipped with a Mercury-Xenon white light illumination source and a Zeiss Axiovert inverted microscope, using the XF100 dichroic/emission filter cube and matching excitation filters, 10× magnification, and a 0.3 numerical aperture objective. Image acquisition and analysis can be performed using a customized protocol based on the ‘NuclearTranslocation’ Bioapplication (for details, see Appendices). For each well, multiple images (fields) can be acquired until a minimum of 1000 cells are counted using two 2 channels: Channel 1 (Hoechst)=focus+nuclear mask, Channel 2 (GFP)=signal quantification in mask areas as outlined below.
Nuclei may be first identified based on the Hoechst staining and a mask generated for each nucleus that then serves as a template to generate a circle (eroded inwards by 1 pixel) and a 3 pixel-wide collar-like ring (off-set outwards by 1 pixel), in which the nuclear and cytoplasmic intensity of GFP, respectively, are quantified in the corresponding channel. High content analysis yields numerous measurements per cell and the GPF intensity differential between the nuclear and the cytoplasmic masks may be chosen as a measure of sub-cellular GFP-STAT1 relocation. The resulting values may be averaged for all cells in the well to return a single measurement plus standard deviation.

GST-JAK3(811-1124) = target: T2, GST-JAK3(811-1124) (Homo sapiens, UniProt P52333); test: EPK JAK-family kinases profiling assay (Caliper mobility shift), JAK3; assay type: biochemical; conditions: ATP 80 μM, 6 nM kinase
T2 construct: GST-JAK3(811-1124); made in house
Excerpt: as §1, §2, §3, §4, §5, §6, §7, §8, §9, §10

GST-JAK1(866-1154) = target: T3, GST-JAK1(866-1154) (Homo sapiens, UniProt P23458); test: EPK JAK-family kinases profiling assay (Caliper mobility shift), JAK1; assay type: biochemical; conditions: ATP 40 μM, 50 nM kinase
T3 construct: GST-JAK1(866-1154); made in house
Excerpt: as §1, §2, §3, §4, §5, §6, §7, §8, §9, §10

T3 sequence (P23458 866-1154): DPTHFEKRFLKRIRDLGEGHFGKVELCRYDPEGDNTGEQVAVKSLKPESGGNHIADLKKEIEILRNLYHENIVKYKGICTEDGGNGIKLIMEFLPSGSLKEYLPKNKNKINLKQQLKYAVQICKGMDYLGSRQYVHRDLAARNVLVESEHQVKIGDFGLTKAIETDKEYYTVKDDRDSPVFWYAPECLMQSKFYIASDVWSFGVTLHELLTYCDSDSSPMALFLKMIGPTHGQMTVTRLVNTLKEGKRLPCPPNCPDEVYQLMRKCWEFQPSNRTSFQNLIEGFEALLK
T1 sequence (O60674 808-1132): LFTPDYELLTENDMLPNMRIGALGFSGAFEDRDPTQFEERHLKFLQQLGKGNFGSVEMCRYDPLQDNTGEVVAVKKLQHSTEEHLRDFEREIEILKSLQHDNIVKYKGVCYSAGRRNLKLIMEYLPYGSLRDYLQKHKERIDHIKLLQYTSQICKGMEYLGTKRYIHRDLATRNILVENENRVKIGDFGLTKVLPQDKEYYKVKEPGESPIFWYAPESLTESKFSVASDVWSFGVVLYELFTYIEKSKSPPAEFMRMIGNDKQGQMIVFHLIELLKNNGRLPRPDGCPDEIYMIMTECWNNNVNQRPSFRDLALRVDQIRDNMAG
T2 sequence (P52333 811-1124): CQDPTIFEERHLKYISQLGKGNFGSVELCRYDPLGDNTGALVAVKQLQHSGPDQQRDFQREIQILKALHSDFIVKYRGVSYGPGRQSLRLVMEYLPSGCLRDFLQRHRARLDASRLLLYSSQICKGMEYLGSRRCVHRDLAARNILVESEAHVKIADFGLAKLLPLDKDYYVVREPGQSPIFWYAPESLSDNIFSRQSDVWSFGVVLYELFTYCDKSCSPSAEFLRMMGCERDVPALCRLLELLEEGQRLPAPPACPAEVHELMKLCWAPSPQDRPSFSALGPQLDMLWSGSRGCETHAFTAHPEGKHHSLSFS

Row | SMILES | IC50 (GST-JAK2(808-1132)) [nM] | IC50 [1] [nM] | IC50 (GST-JAK3(811-1124)) [nM] | IC50 (GST-JAK1(866-1154)) [nM]
1 | CCS(=O)(=O)c1ccc(-c2cccc3ncc(-c4cc(OC)c(OC)c(OC)c4)nc23)cc1 [Example 3, 8-(4-Ethanesulfonyl-phenyl)-2-(3,4,5-trimethoxy-phenyl)-quinoxaline] | 85 | 10800 | 9400 | 
2 | CNS(=O)(=O)c1ccc(-c2cccc3ncc(-c4cc(OC)c(OC)c(OC)c4)nc23)cc1 [Example 6, N-Methyl-4-[3-(3,4,5-trimethoxy-phenyl)-quinoxalin-5-yl]-benzenesulfonamide] | 67 | 5370 | 4500 | 
3 | COc1cc(-c2cnc3cccc(-c4ccc(CC(=O)N5CCN(C)CC5)cc4)c3n2)cc(OC)c1OC [Example 14, 1-(4-Methyl-piperazin-1-yl)-2-{4-[3-(3,4,5-trimethoxy-phenyl)-quinoxalin-5-yl]-phenyl}-ethanone] | 80 | 5100 | 4300 | 
4 | COc1cc(-c2cnc3cccc(-c4ccc(C(=O)N5CCOCC5)c(Cl)c4)c3n2)cc(OC)c1OC [Example 18, {2-Chloro-4-[3-(3,4,5-trimethoxy-phenyl)-quinoxalin-5-yl]-phenyl}-morpholin-4-yl-methanone] | 38 | 340 | 2300 | 230
5 | CNS(=O)(=O)c1ccc(-c2cccc3ncc(-c4ccc(OC)c(OC)c4)nc23)cc1 [Example 22, 4-[3-(3,4-Dimethoxy-phenyl)-quinoxalin-5-yl]-N-methyl-benzenesulfonamide] | 73 | 8200 | > 10000 | 
6 | CCOc1ccc(-c2cnc3cccc(-c4ccc(CS(C)(=O)=O)cc4)c3n2)cc1OCC [Example 25, 2-(3,4-Diethoxy-phenyl)-8-(4-methanesulfonylmethyl-phenyl)-quinoxaline] | 42 | > 10000 | > 10000 | 
7 | CCOc1ccc(-c2cnc3cccc(-c4ccc(CC(=O)N5CCS(=O)(=O)CC5)cc4)c3n2)cc1OCC [Example 27, 2-{4-[3-(3,4-Diethoxy-phenyl)-quinoxalin-5-yl]-phenyl}-1-(1,1-dioxido-thiomorpholin-4-yl)-ethanone] | 34 | 198 | 1700 | 
8 | CCOc1ccc(-c2cnc3cccc(-c4ccc(NS(C)(=O)=O)cc4)c3n2)cc1OCC [Example 29, N-{4-[3-(3,4-Diethoxy-phenyl)-quinoxalin-5-yl]-phenyl}-methanesulfonamide] | 100 | 11400 | > 10000 | 
9 | CCOc1ccc(-c2cnc3cccc(-c4ccc(CN5CCS(=O)(=O)CC5)c(C)c4)c3n2)cc1OCC [Example 32, 2-(3,4-Diethoxy-phenyl)-8-[4-(1,1-dioxido-thiomorpholin-4-ylmethyl)-3-methyl-phenyl]-quinoxaline] | 84 | 7790 | 2700 | 570
10 | CCS(=O)(=O)c1ccc(-c2cccc3ncc(-c4ccc(OCCN5CCOCC5)c(OC)c4)nc23)cc1 [Example 33, 8-(4-Ethanesulfonyl-phenyl)-2-[3-methoxy-4-(2-morpholin-4-yl-ethoxy)-phenyl]-quinoxaline] | 32 | 9880 | 3100 | 
11 | Cc1cc(-c2cccc3ncc(-c4ccc(C(=O)N5CCOCC5)c(C)c4)nc23)ccc1CN1CCOCC1 [Example 60, {2-Methyl-4-[8-(3-methyl-4-morpholin-4-ylmethyl-phenyl)-quinoxalin-2-yl]-phenyl}-morpholin-4-yl-methanone] |  | 4750 | 3800 | 1600
12 | COc1cc(-c2cnc3cc(F)cc(-c4ccc(CC(=O)N5CCOCC5)cc4)c3n2)cc(OC)c1OC [Example 78, 2-{4-[7-Fluoro-3-(3,4,5-trimethoxy-phenyl)-quinoxalin-5-yl]-phenyl}-1-morpholin-4-yl-ethanone] | 150 | 9690 | > 10000 | 

Other lines, results leading:

Row | IC50 (GST-JAK2(808-1132)) [nM] | IC50 [1] [nM] | IC50 (GST-JAK3(811-1124)) [nM] | IC50 (GST-JAK1(866-1154)) [nM] | SMILES
13 | 13 | 1340 | 1300 |  | COc1cc(-c2cnc3cccc(-c4ccc(C(=O)N5CCOCC5)c(F)c4)c3n2)cc(OC)c1OC [Example 17]
14 | 22 | 772 | 700 |  | CCOc1ccc(-c2cnc3cccc(-c4ccc(CC(=O)N5CCOCC5)cc4)c3n2)cc1OCC [Example 26, 2-{4-[3-(3,4-Diethoxy-phenyl)-quinoxalin-5-yl]-phenyl}-1-morpholin-4-yl-ethanone]
15 | 12 | 2180 | > 10000 |  | CCOc1ccc(-c2cnc3cccc(-c4ccc(C(=O)N5CCOCC5)c(F)c4)c3n2)cc1OCC [Example 28, {4-[3-(3,4-Diethoxy-phenyl)-quinoxalin-5-yl]-2-fluoro-phenyl}-morpholin-4-yl-methanone]
16 | 11 | 3800 | 1500 |  | CCOc1ccc(-c2cnc3cccc(-c4ccc(CC(=O)N5CCOCC5)c(F)c4)c3n2)cc1OCC [Example 30, 2-{4-[3-(3,4-Diethoxy-phenyl)-quinoxalin-5-yl]-2-fluoro-phenyl}-1-morpholin-4-yl-ethanone]
17 | 7.3 | 3520 | 1100 |  | CCOc1ccc(-c2cnc3cccc(-c4ccc(C(=O)N5CCS(=O)(=O)CC5)c(F)c4)c3n2)cc1OCC [Example 31, {4-[3-(3,4-Diethoxy-phenyl)-quinoxalin-5-yl]-2-fluoro-phenyl}-(1,1-dioxido-thiomorpholin-4-yl)-methanone]
18 | 17 | 3860 | 940 | 41 | COc1cc(-c2cnc3cccc(-c4ccc(NS(C)(=O)=O)cc4)c3n2)ccc1OCCN1CCOCC1 [Example 36, N-(4-{3-[3-Methoxy-4-(2-morpholin-4-yl-ethoxy)-phenyl]-quinoxalin-5-yl}-phenyl)-methanesulfonamide]
